The source of these data is patent publication US11866408B2, “N,N-dimethyltryptamine and related psychedelics and uses thereof” (Terran Biosciences Inc., priority 2021, dated 2024).

By Cmax is commonly meant the maximum level reached in the sampled fluid or tissue. One may read the Tmax as the time at which the peak concentration occurs. A word on the AUC(0-t): it is exposure summed from dosing to a finite time, without extrapolation to infinity. The term AUC(0-inf) denotes total exposure, with the tail of the curve extrapolated. A word on the clearance: it is the rate of elimination divided by the concentration. One may read the MRT as the average time that molecules of a dose stay in the body. One may read the Vd as a proportionality between amount in the body and measured concentration, not a real space. In general, half-life refers to the time in which the quantity being followed falls by half.

Series [1] can be described thus: Single oral dose pharmacokinetics study in rats (10 mg/kg PO; plasma levels of prodrug and of metabolite DMT or 5-MeO-DMT by LC-MS/MS). Conditions: for Mean Plasma Concentration (ng/mL) of metabolite DMT: analyte DMT after oral dosing of prodrug 10 mg/Kg; for Mean Plasma Concentrations of metabolite DMT: prodrug 10 mg/Kg oral, male SD rats.
A short description of series [2]: Single intravenous dose pharmacokinetics study in rats (1 mg/kg IV; plasma levels of prodrug and of DMT or 5-MeO-DMT by LC-MS/MS). Conditions: IV 1 mg/kg, plasma, analyte = dosed compound.
The mark [3] stands for this setting: oral 10 mg/Kg, analyte = dosed prodrug, mean.
The mark [4] stands for this setting: oral 10 mg/Kg, analyte = dosed prodrug, median.
The mark [5] stands for this setting: male, Sprague-Dawley, rat, plasma, po, 10 mg/kg, AUC0-last (h*ng/mL), oral 10 mg/Kg, analyte = dosed prodrug, mean.
Setting [6] is: male, Sprague-Dawley, rat, plasma, po, 10 mg/kg, Cmax (ng/mL), oral 10 mg/Kg, analyte = dosed prodrug, mean.
Setting [7] is: male, Sprague-Dawley, rat, iv, 1 mg/kg, AUC0-t (nM.hr).
Where [8] appears, read: male, Sprague-Dawley, rat, iv, 1 mg/kg, AUC0-t (ng.hr/mL).
Where [9] appears, read: PO 10 mg/kg, plasma, analyte = dosed compound.
[10] abbreviates: male, Sprague-Dawley, rat, plasma, po, 10 mg/kg, C0/Cmax (nM), PO 10 mg/kg, analyte = dosed compound.
The mark [11] stands for this setting: male, Sprague-Dawley, rat, plasma, po, 10 mg/kg, C0/Cmax (ng/mL), PO 10 mg/kg, analyte = dosed compound, mean/median.

Counter-ions that a name gives are not always drawn.

Consider `COc1ccc2c(c1)c(CCN(C)C)cn2C(C)=O` [5-MeO-DMT AP-1, 1-[3-[2-(dimethylamino)ethyl]-5-methoxy-indol-1-yl]ethanone], for which, in series [1] (setting [3]), the “AUC0-last” value was 180 ng·h/mL, the “Cmax” value is 69 ng/mL and the “T½” value amounted to 74.4 min. Moreover, in series [1] (setting [4]), the time of peak concentration (Tmax) was 30 min and the “tlast” value is on record as 7.00 h.

Turning to `COc1ccc2c(c1)c(CCN(C)C)cn2C(=O)OC(C)C` [5-MeO-DMT CP-2, isopropyl 3-[2-(dimethylamino)ethyl]-5-methoxy-indole-1-carboxylate], in series [1] (setting [5]), the AUC(0-t) stood at 6.8 ng·h/mL. Further, the Cmax in series [1] (setting [6]) amounted to 5.7 ng/mL. In addition, the “tlast” value in series [1] (setting [4]) worked out at 2.50 h.

In the case of `COc1ccc2c(c1)c(CCN(C)C)cn2C(=O)OC(C)(C)C` [5-MeO-DMT CP-3, tert-butyl 3-[2-(dimethylamino)ethyl]-5-methoxy-indole-1-carboxylate], the AUC(0-t) in series [1] (setting [5]) came out at 17.3 ng·h/mL. Also, the Cmax in series [1] (setting [6]) is 7.51 ng/mL. For the same compound, the “tlast” value in series [1] (setting [4]) turned out to be 4.00 h.

With `CCCOC(=O)n1cc(CCN(C)C)c2cc(OC)ccc21` [5-MeO-DMT CP-4, propyl 3-[2-(dimethylamino)ethyl]-5-methoxy-indole-1-carboxylate], in series [1] (setting [5]), the AUC(0-t) amounted to 6.45 ng·h/mL. Besides, the Cmax in series [1] (setting [6]) was found to be 4.85 ng/mL. Moreover, in series [1] (setting [4]), the “tlast” value came out at 3.00 h.

As for `COc1ccc2c(c1)c(CCN(C)C)cn2C(=O)CCC(=O)O` [5-MeO-DMT Non-Lipid Prodrug 5, 4-(3-(2-(dimethylamino)ethyl)-5-methoxy-1H-indol-1-yl)-4-oxobutanoic acid], the exposure AUC(0-t) in series [1] (setting [5]) turned out to be 85.7 ng·h/mL. Besides, the Cmax in series [1] (setting [6]) worked out at 23 ng/mL. The “tlast” value in series [1] (setting [4]) is given as 7.00 h.

As to `COc1ccc2c(c1)c(CCN(C)C)cn2C(=O)CCCC(=O)O` [5-MeO-DMT Non-Lipid Prodrug 6, 5-(3-(2-(dimethylamino)ethyl)-5-methoxy-1H-indol-1-yl)-5-oxopentanoic acid], the exposure AUC(0-t) in series [1] (setting [5]) came out at 362 ng·h/mL. Besides, in series [1] (setting [6]), the Cmax was determined as 106 ng/mL. Besides, in series [1] (setting [4]), the “tlast” value came out at 7.00 h.

`COc1ccc2[nH]cc(CCN(C)C)c2c1` [Compound 5-MeO-DMT, 5-methoxy-N,N-dimethyltryptamine, reference compound]: the “AUC % Back Extrapolation to C0” value in series [2] is listed as 26.8%. For the same compound, the “AUC % Extrapolation to infinity” value in series [2] is 0.204%. The results for the “Clast” value in series [2] and in series [1] (setting [9]) were 1.68 ng/mL and 1.95 ng/mL, respectively. The “tlast” value in series [2] is 5.50 h; in series [1] (setting [9]) it was 2.00 h. The AUC(0-t) in series [2] (setting [7]) was determined as 4.95 µM·h; in series [2] (setting [8]), 1080 ng·h/mL. The area under the curve AUC(0-inf) in series [2] (male, Sprague-Dawley, rat, iv, 1 mg/kg, AUCinf (nM.hr)) came out at 4.95 µM·h; in series [2] (male, Sprague-Dawley, rat, iv, 1 mg/kg, AUCinf (ng.hr/mL)), 1080 ng·h/mL. The clearance in series [2] (male, Sprague-Dawley, rat, iv, 1 mg/kg, CL/CL_F (mL/min/kg)) came out at 24.6 mL/min/kg. For the same compound, in series [2] (male, Sprague-Dawley, rat, iv, 1 mg/kg, MRT (h)), the MRT amounted to 37.4 min. In series [2] (male, Sprague-Dawley, rat, iv, 1 mg/kg, Vdss (L/kg)), the Vd is 0.818 L/kg. In series [2] (male, Sprague-Dawley, rat, iv, 1 mg/kg, t1/2 (h)), the half-life is 30.6 min. In addition, the Cmax in series [1] (setting [10]) was determined as 13.9 nM; in series [1] (setting [11]), 3.03 ng/mL.

Consider `CCOC(=O)n1cc(CCN(C)C)c2cc(OC)ccc21` [Compound 19, Ethyl 3-[2-(dimethylamino)ethyl]-5-methoxy-indole-1-carboxylate], for which, in series [2], the “AUC % Back Extrapolation to C0” value is 59.7%. The “AUC % Extrapolation to infinity” value in series [2] is listed as 0.104%. For the same compound, the “Clast” value in series [2] is on record as 2.95 ng/mL; in series [1] (setting [9]), 1.90 ng/mL. Besides, the “tlast” value is 5.50 h in series [2] and 24.0 h in series [1] (setting [9]). Besides, the AUC(0-t) in series [2] (setting [7]) was found to be 14.4 µM·h; in series [2] (setting [8]), 4170 ng·h/mL; in series [1] (male, Sprague-Dawley, rat, plasma, po, 10 mg/kg, AUC0-t (nM.hr), PO 10 mg/kg, analyte = dosed compound), 0.237 µM·h; in series [1] (male, Sprague-Dawley, rat, plasma, po, 10 mg/kg, AUC0-t (ng.hr/mL), PO 10 mg/kg, analyte = dosed compound) it was 68.8 ng·h/mL. Further, the results for the highest concentration (Cmax) in series [1] (setting [10]) and in series [1] (setting [11]) were 8.15 nM and 2.37 ng/mL, respectively.

With `CN(C)CCc1cn(C(=O)N2CCC(N3CCCCC3)CC2)c2ccccc12` [DMT 4-Piperidinopiperidine urea formate, [1,4′-Bipiperidin]-1′-yl(3-(2-(dimethylamino)ethyl)-1H-indol-1-yl)methanone], the “Mean Plasma Concentration (ng/mL) of metabolite DMT” value in series [1] (0.50 h), in series [1] (1.00 h), in series [1] (2.00 h), in series [1] (4.00 h), in series [1] (7.00 h) and in series [1] (24.0 h) was “BLQ (BLQ: Below Lower Limit of Quantification (0.5 ng/mL))” throughout.

With `CC(=O)n1cc(CCN(C)C)c2ccccc21` [DMT AP-1, 1-[3-[2-(dimethylamino)ethyl]indol-1-yl]ethenone], the AUC(0-t) in series [1] (setting [5]) was determined as 2.16 ng·h/mL. Moreover, the highest concentration (Cmax) in series [1] (setting [6]) was 3.53 ng/mL. Besides, the “tlast” value in series [1] (setting [4]) is recorded as 1.00 h.

In the case of `CN(C)CCc1cn(C(=O)c2ccccc2)c2ccccc12` [DMT Benzamide], in series [1] (setting [5]), the exposure AUC(0-t) was 66.5 ng·h/mL. Besides, the Cmax in series [1] (setting [6]) was 17.7 ng/mL. For the same compound, in series [1] (setting [4]), the “tlast” value is recorded as 7.00 h.

For the compound `CC(C)OC(=O)n1cc(CCN(C)C)c2ccccc21` [DMT CP-2, isopropyl 3-[2-(dimethylamino)ethyl]indole-1-carboxylate], the AUC(0-t) in series [1] (male, Sprague-Dawley, rat, plasma, po, 10 mg/kg, AUC0-24 (h*ng/mL), oral 10 mg/Kg, analyte = dosed prodrug, mean) is 60.9 ng·h/mL; in series [1] (setting [5]), 39.4 ng·h/mL. In addition, in series [1] (setting [6]), the maximum concentration (Cmax) stood at 17.4 ng/mL. Besides, the “tlast” value in series [1] (setting [4]) is listed as 4.00 h.

Take `CN(C)CCc1cn(C(=O)OC(C)(C)C)c2ccccc12` [DMT CP-3, tert-butyl 3-[2-(dimethylamino)ethyl]indole-1-carboxylate]: in series [1] (setting [5]), the AUC(0-t) came to 13.8 ng·h/mL. Further, the Cmax in series [1] (setting [6]) came to 11.1 ng/mL. Further, in series [1] (setting [4]), the “tlast” value came to 4.00 h.

For the compound `CCCOC(=O)n1cc(CCN(C)C)c2ccccc21` [DMT CP-4, propyl 3-[2-(dimethylamino)ethyl]indole-1-carboxylate], the exposure AUC(0-t) in series [1] (setting [5]) was 28.2 ng·h/mL. Besides, the maximum concentration (Cmax) in series [1] (setting [6]) came out at 14.3 ng/mL. The “tlast” value in series [1] (setting [4]) amounted to 4.50 h.

Turning to `CC(C)COC(=O)n1cc(CCN(C)C)c2ccccc21` [DMT CP-5, isobutyl 3-[2-(dimethylamino)ethyl]indole-1-carboxylate], the AUC(0-t) in series [1] (setting [5]) was determined as 8.63 ng·h/mL. The Cmax in series [1] (setting [6]) was 2.92 ng/mL. The “tlast” value in series [1] (setting [4]) is reported as 4.00 h.

For `CN(C)CCc1cn(C(=O)N(C)C)c2ccccc12` [DMT N,N-dimethyl urea formate, 3-[2-(dimethylamino)ethyl]-N,N-dimethyl-indole-1-carboxamide], the “Mean Plasma Concentrations of metabolite DMT” value in series [1] (time 0.50 h), in series [1] (time 1.00 h), in series [1] (time 2.00 h), in series [1] (time 4.00 h), in series [1] (time 7.00 h) and in series [1] (time 24.0 h) was “BLQ (BLQ: Below Lower Limit of Quantification (0.5 ng/mL))” in each case.

Take `CN(C)CCc1cn(C(=O)CC(C)(C)C(=O)O)c2ccccc12` [DMT-3,3-dimethylsuccinate hydrochloride, 4-(3-(2-(dimethylamino)ethyl)-1H-indol-1-yl)-2,2-dimethyl-4-oxobutanoic acid HCl salt]: the “Mean Plasma Concentrations of metabolite DMT” value in series [1] (time 0.50 h), in series [1] (time 1.00 h), in series [1] (time 2.00 h), in series [1] (time 4.00 h), in series [1] (time 7.00 h) and in series [1] (time 24.0 h) was “BLQ (BLQ: Below Lower Limit of Quantification (0.5 ng/mL))” throughout.
